Here are results for one cell line from the supplement of paper PMC10307832.

What all share (experiment): relative viability (nuclei count vs DMSO), 5 days (fraction); higher = more cells survive
Compound in the assay “Ibrutinib + Pictilisib”: C=CC(=O)N1CCC[C@@H](n2nc(-c3ccc(Oc4ccccc4)cc3)c3c(N)ncnc32)C1 [Ibrutinib] + CS(=O)(=O)N1CCN(Cc2cc3nc(-c4cccc5[nH]ncc45)nc(N4CCOCC4)c3s2)CC1 [Pictilisib] (partner 1 µM)
An outline of the steps: (§1)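 Relative viability is defined as nuclei in treated wells over nuclei in vehicle wells. Duplicate plates were run and medians reported. Lung cancer cell lines in 1536-well plates were dosed by pin tool one day after seeding, with one drug or with a fixed anchor-drug dose plus five library-drug doses (not always all listed) in √10 steps, and nuclei were counted after 5 days.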

Compound in the assay “BMX-IN-1 + OSI-027”: C=CC(=O)Nc1cc(-n2c(=O)ccc3cnc4ccc(-c5ccc(NS(C)(=O)=O)cc5)cc4c32)ccc1C [BMX-IN-1] + COc1cccc2cc(-c3nc([C@H]4CC[C@H](C(=O)O)CC4)n4ncnc(N)c34)[nH]c12 [OSI-027] (partner 0.5 µM)
The gist of the method: as §1

Compound in the assay “PAC-1 + Trametinib”: C=CCc1cccc(/C=N/NC(=O)CN2CCN(Cc3ccccc3)CC2)c1O [PAC-1] + CC(=O)Nc1cccc(-n2c(=O)n(C3CC3)c(=O)c3c(Nc4ccc(I)cc4F)n(C)c(=O)c(C)c32)c1 [Trametinib] (partner 0.02 µM)
An outline of the steps:
as §1

Compound in the assay “BMX-IN-1 + Tozasertib”: C=CC(=O)Nc1cc(-n2c(=O)ccc3cnc4ccc(-c5ccc(NS(C)(=O)=O)cc5)cc4c32)ccc1C [BMX-IN-1] + Cc1cc(Nc2cc(N3CCN(C)CC3)nc(Sc3ccc(NC(=O)C4CC4)cc3)n2)n[nH]1 [Tozasertib] (partner 0.1 µM)
An outline of the steps: as §1

For SK-MES-1, the relative viability with Ibrutinib + Pictilisib (first compound 0.005 µM) was determined as 0.307; in the assay with Ibrutinib + Pictilisib (first compound 0.01581 µM), 0.274; with Ibrutinib + Pictilisib (first compound 0.05 µM), 0.254; with Ibrutinib + Pictilisib (first compound 0.1581 µM), 0.342; in the assay with Ibrutinib + Pictilisib (first compound 0.5 µM) it was 0.198; in the assay with BMX-IN-1 + OSI-027 (first compound 0.02 µM), 0.783. The relative viability was 0.645 with BMX-IN-1 + OSI-027 (first compound 0.2 µM); 0.757 with BMX-IN-1 + OSI-027 (first compound 0.6325 µM); 0.239 in the assay with BMX-IN-1 + OSI-027 (first compound 2 µM); 0.498 with PAC-1 + Trametinib (first compound 0.02 µM); 0.529 with PAC-1 + Trametinib (first compound 0.06325 µM); 0.543 with PAC-1 + Trametinib (first compound 0.2 µM). Moreover, the relative viability was found to be 0.622 in the assay with PAC-1 + Trametinib (first compound 2 µM); 1.12 with BMX-IN-1 + Tozasertib (first compound 0.02 µM); 1.15 in the assay with BMX-IN-1 + Tozasertib (first compound 0.2 µM); 1.07 in the assay with BMX-IN-1 + Tozasertib (first compound 0.6325 µM); 0.884 with BMX-IN-1 + Tozasertib (first compound 2 µM).
